{
  "source": "patent US9974305B2",
  "about": "“Fungicidal or bactericidal composition, and method for controlling diseases” (NISSAN CHEMICAL INDUSTRIES, LTD., priority 2014, dated 2018)",
  "test_system": "cucumber gray mold fungus (Botrytis cinerea)",
  "assay": "Preventive test against gray mold on cucumber cotyledon leaves, spray treatment, preventive value and Colby expected value (Test Examples 1-4)",
  "format": "in vivo",
  "details": "single compound; for pest or weed control at 8 ppm: 8 ppm spray; for pest or weed control at 100 ppm: 100 ppm spray; for pest or weed control at 10 ppm: 10 ppm spray; for pest or weed control at 50 ppm: 50 ppm spray; for pest or weed control at 25 ppm: 25 ppm spray; for pest or weed control at 3 ppm: 3 ppm spray; for pest or weed control at 35 ppm: 35 ppm spray",
  "method": "Using the following compound listed in Table 2 (the active ingredient A) and the compound listed in Table 5 through Table 15 (active ingredient B), an agent was prepared in accordance with the above Formulation Example. This agent was diluted with water to a predetermined concentration to obtain a test solution. Then, cucumber (variety: Sagami-hanjiro) was planted in a plastic pot of 90 cm^3, and in the cotyledon stage, 5 ml of the obtained test solution, was sprayed by a spray gun and air-dried. Thereafter, the treated leaf was cut off and placed in a plastic container which filled approximately 0.5 cm in depth water. A suspension of conidia of cucumber gray mold fungus (Botrytis cinerea) and a dissolved PDA culture medium were mixed at a ratio of 1:1 (mass ratio), and the mixture was dropped to inoculate the treated leaf with 30 μl. After the inoculation, the plastic container was sealed and left at 20° C. for 3 days, the ratio of the formed lesion occupying the inoculated leaf was measured, and the preventive value was calculated in accordance with the following calculation formula. Preventive value=[1−(treated plot lesion area ratio/untreated plot lesion area ratio)]×100\nFurther, from the preventive value at each agent concentration, synergy was calculated by using the Colby method (Colby S. R. 1976, Weeds 15, 20-22). The calculation method is as follows. E=X+Y−XY/100\nX: preventive value of A agent at x concentration\nY: preventive value of B agent at y concentration\nE: theoretical value expected by treatment of the mixture of A agent and B agent.\nThe obtained result is analyzed to be synergy if the observed value is larger than the expected value, to be antagonism if the expected value is larger than the observed value, and to be an additive effect if the observed value and the expected value are the same.\nUsing the following compound listed in Table 2 (active ingredient A) and the following compound listed in Table 5 through Table 15 (active ingredient B) as active ingredients, a preventive test against gray mold was conducted in accordance with the method described in Test Example 1.\nUsing the following compound listed in Table 2 (active ingredient A) and the following compound listed in Table 5 or Table 6 (active ingredient B) as active ingredients, a preventive test against gray mold was conducted in accordance with the method described in Test Example 1.\nUsing the following compound listed in Table 2 (active ingredient A) and the following compound listed in Table 6 through Table 16 (active ingredient B) as active ingredients, a preventive test against gray mold was conducted in accordance with the method described in Test Example 1.",
  "key": {"[1]": {"details": "Botrytis cinerea, 72 h, Test Example 1"}, "[2]": {"details": "Botrytis cinerea, 72 h, Test Example 2"}, "[3]": {"details": "Botrytis cinerea, 72 h, Test Example 4, read-out: Preventive value"}},
  "note": "Read-outs that look alike come from different tables or passages of the source.",
  "data": [
    {"smiles": "CC#Cc1cc(C)nc(Nc2ccccc2)n1", "note": "[D2, mepanipyrim]", "values": [
      {"measurement": "pest or weed control at 8 ppm", "setting": "[1]", "value": 55, "unit": "%"},
      {"measurement": "pest or weed control at 8 ppm", "setting": "[2]", "value": 56, "unit": "%"}
    ]},
    {"smiles": "O=C(Cc1ccccc1)N/C(=N\\OCC1CC1)c1c(C(F)(F)F)ccc(F)c1F", "note": "[M01, cyflufenamid]", "values": [
      {"measurement": "pest or weed control at 100 ppm", "setting": "[3]", "value": 15, "unit": "%"}
    ]},
    {"smiles": "CC(C)Oc1cccc(NC(=O)c2ccccc2C(F)(F)F)c1", "note": "[C07, flutolanil]", "values": [
      {"measurement": "pest or weed control at 100 ppm", "setting": "Botrytis cinerea, 72 h, Test Example 3, read-out: Preventive value", "value": 50, "unit": "%"}
    ]},
    {"smiles": "CC12CC1(C)C(=O)N(c1cc(Cl)cc(Cl)c1)C2=O", "note": "(stereo not drawn) [F02, procymidone]", "values": [
      {"measurement": "pest or weed control at 10 ppm", "setting": "[3]", "value": 55, "unit": "%"}
    ]},
    {"smiles": "OC(c1ccc(Cl)cc1)(c1cncnc1)c1ccccc1Cl", "note": "(stereo not drawn) [H12, fenarimol]", "values": [
      {"measurement": "pest or weed control at 10 ppm", "setting": "[3]", "value": 55, "unit": "%"}
    ]},
    {"smiles": "FC(F)C(F)(F)OCC(Cn1cncn1)c1ccc(Cl)cc1Cl", "note": "(stereo not drawn) [H36, tetraconazole]", "values": [
      {"measurement": "pest or weed control at 10 ppm", "setting": "[3]", "value": 55, "unit": "%"}
    ]},
    {"smiles": "O=[N+]([O-])c1cc(C(F)(F)F)c(Cl)c([N+](=O)[O-])c1Nc1ncc(C(F)(F)F)cc1Cl", "note": "[C43, fluazinam]", "values": [
      {"measurement": "pest or weed control at 50 ppm", "setting": "[3]", "value": 45, "unit": "%"}
    ]},
    {"smiles": "CCCC(Cn1cncn1)c1ccc(Cl)cc1Cl", "note": "(stereo not drawn) [H28, penconazole]", "values": [
      {"measurement": "pest or weed control at 10 ppm", "setting": "[3]", "value": 45, "unit": "%"}
    ]},
    {"smiles": "Fc1ccc(Oc2ccnc3cc(Cl)cc(Cl)c23)cc1", "note": "[E02, quinoxyfen]", "values": [
      {"measurement": "pest or weed control at 100 ppm", "setting": "[3]", "value": 5, "unit": "%"}
    ]},
    {"smiles": "CC(Cc1ccc(C(C)(C)C)cc1)CN1C[C@@H](C)O[C@@H](C)C1", "note": "(stereo partly drawn) [H45, fenpropimorph]", "values": [
      {"measurement": "pest or weed control at 100 ppm", "setting": "[3]", "value": 10, "unit": "%"}
    ]},
    {"smiles": "Cc1ccccc1C(=O)Nc1cccc(OC(C)C)c1", "note": "[C12, mepronil]", "values": [
      {"measurement": "pest or weed control at 10 ppm", "setting": "Botrytis cinerea, 72 h, read-out: Preventive value, Test Example 3", "value": 60, "unit": "%"}
    ]},
    {"smiles": "Cc1cc(C2CC2)nc(Nc2ccccc2)n1", "note": "[D1, cyprodinil]", "values": [
      {"measurement": "pest or weed control at 50 ppm", "setting": "[3]", "value": 50, "unit": "%"}
    ]},
    {"smiles": "O=C1c2ccccc2C(=O)N1SC(Cl)(Cl)Cl", "note": "[L24, folpet]", "values": [
      {"measurement": "pest or weed control at 100 ppm", "setting": "[3]", "value": 45, "unit": "%"}
    ]},
    {"smiles": "COc1cc(Cl)c(OC)cc1Cl", "note": "[G06, chloroneb]", "values": [
      {"measurement": "pest or weed control at 100 ppm", "setting": "Botrytis cinerea, 72 h, read-out: Preventive value, Test Example 4", "value": 35, "unit": "%"}
    ]},
    {"smiles": "O=C(NCCc1ncc(C(F)(F)F)cc1Cl)c1ccccc1C(F)(F)F", "note": "[C06, fluopyram]", "values": [
      {"measurement": "pest or weed control at 5 ppm", "setting": "Botrytis cinerea, 72 h, Test Example 3, 5 ppm spray", "value": 63, "unit": "%"}
    ]},
    {"smiles": "Cn1cc(C(=O)Nc2ccccc2-c2cc(F)c(F)c(F)c2)c(C(F)F)n1", "note": "[C08, fluxapyroxad]", "values": [
      {"measurement": "Preventive value", "setting": "Test Example 3, 1 ppm spray", "value": 65}
    ]},
    {"smiles": "CC1(C(=O)Nc2ccc(O)c(Cl)c2Cl)CCCCC1", "note": "[H49, fenhexamid]", "values": [
      {"measurement": "pest or weed control at 25 ppm", "setting": "[1]", "value": 30, "unit": "%"},
      {"measurement": "pest or weed control at 25 ppm", "setting": "[2]", "value": 25, "unit": "%"}
    ]},
    {"smiles": "OC(Cn1cncn1)(c1ccc(F)cc1)c1ccccc1F", "note": "(stereo not drawn) [H17, flutriafol]", "values": [
      {"measurement": "pest or weed control at 10 ppm", "setting": "[3]", "value": 45, "unit": "%"}
    ]},
    {"smiles": "CC(Cc1ccc(C(C)(C)C)cc1)CN1CCCCC1", "note": "(stereo not drawn) [H44, fenpropidin]", "values": [
      {"measurement": "pest or weed control at 100 ppm", "setting": "[3]", "value": 35, "unit": "%"}
    ]},
    {"smiles": "COc1cc(C)c(C(=O)c2c(OC)ccc(Br)c2C)c(OC)c1OC", "note": "[M09, metrafenone]", "values": [
      {"measurement": "pest or weed control at 100 ppm", "setting": "[3]", "value": 5, "unit": "%"}
    ]},
    {"smiles": "C[C@@]1(c2ccc(Oc3ccccc3)cc2)OC(=O)N(Nc2ccccc2)C1=O", "note": "(racemic) [C23, famoxadone]", "values": [
      {"measurement": "pest or weed control at 100 ppm", "setting": "[3]", "value": 35, "unit": "%"}
    ]},
    {"smiles": "N#Cc1c[nH]cc1-c1cccc2c1OC(F)(F)O2", "note": "[Compound No. E04, fludioxonil]", "values": [
      {"measurement": "pest or weed control at 3 ppm", "setting": "Botrytis cinerea, 72 h, read-out: Preventive value, Test Example 1", "value": 60, "unit": "%"},
      {"measurement": "pest or weed control at 3 ppm", "setting": "Botrytis cinerea, 72 h, read-out: Preventive value, Test Example 2", "value": 58, "unit": "%"}
    ]},
    {"smiles": "CC(C)NC(=O)N1CC(=O)N(c2cc(Cl)cc(Cl)c2)C1=O", "note": "[Compound No. F01, iprodione]", "values": [
      {"measurement": "pest or weed control at 35 ppm", "setting": "[1]", "value": 50, "unit": "%"},
      {"measurement": "pest or weed control at 35 ppm", "setting": "[2]", "value": 48, "unit": "%"}
    ]}
  ]
}
